Data reported in patent US20240217961A1 (MONOPTEROS THERAPEUTICS, INC., priority 2021, published 2024).
“Also recorded” adds a separate entry of the source.

Legend:
[1] = Solubility at 25° C., 24 h, in SGF, FaSSIF, FeSSIF and water; assay type: physicochemical
[2] = Dynamic Vapor Sorption (DVS) at 25° C.; details: for DVS Result 95% RH: 0(120 min)-95% RH(180 min), dm/dt 0.002%
[3] = Hygroscopicity: storage at 92.5% RH for 1 week, weight loss by TGA; assay type: physicochemical; details: for 92.5% RH for 1W (by TGA,%): weight loss by TGA at 145° C. after 92.5% RH for 1 week; for 92.5% RH for 1W, observation: after 92.5% RH for 1 week, Deliqu means deliquescent
[4] = Excipient compatibility study of milled API in binary mixtures (40° C./75% R.H. open, 60° C. closed; HPLC, XRPD, appearance); assay type: physicochemical
Description: Samples were set up at each of these two conditions: 40° C./75% R.H. open, and 60° ° C., closed. Three sampling time points (initial, 2 weeks, and 4 weeks) are specified in Table 15.
The API was set up as a control at each time point and each condition. For the pure excipients, only one bulk sample was set up at each condition. They were analyzed at the initial time point and at other time points if degradation of the active substance was observed. For the 15 binary mixtures, triplicate samples were set up at each time point/condition. Two samples were analyzed for purity and XRPD test, and the third one was kept as a contingency sample. The appearance and XRPD of samples under each condition were recorded at each time point.
The binary mixture was set up in duplicate.
Excipient blank controls: Each excipient blank was weighed into a 40 mL clear glass vial as excipient blank control. The excipient blank was set up as a single sample.
API control: Approximate: 13.8 mg of API was weighed into a 40 mL clear glass vial. The API control was set up in duplicate.
All the samples for open condition storage were put into an uncapped clear glass vial. The mouth of vials were covered by aluminum foil with pinholes, to avoid cross-contamination, and then stored in the stability chamber. The samples were stored at each condition 40° C./75% R.H. open and 60° C. close conditions and monitored for physical appearance, XRPD, impurities/related substances and assay at each time point, respectively.
All samples at 40° C./75% R.H., and 60° C. for 2 weeks and 4 weeks, were pulled out and cooled to room temperature for physical appearance, total related substances (TRS) and assay analysis. The diluent was accurately added into 40 ml vials and then the solution was sonicated for 10 minutes to facilitate dissolution of the API. Then 1 mL solution was taken out and centrifuged at 14000 rpm for 5 min for twice to separate some undissolved excipients, and then the concentration of supernatants were analyzed by HPLC instrument. The recovery and TRS results of excipient compatibility study at 40° C./75% R.H., and 60° C. are shown in Table 9, and the results of the complete impurity content and XRPD result are listed in Table 7.

[5] = 70% RH, 25° C., method 50-90-0-50% RH, dm/dt = 0.01%

In the case of Fumarate, the “Solubility 24 h” value ([1]; FaSSIF, pH 6.5) is reported as 9400 µg/mL, the “pH of solubility sample” value ([1]; FaSSIF, pH 6.5, 24 h) is reported as 3.63 and the “pH of solubility sample” value ([1]; FaSSIF, pH 6.5, 24 h, target concentration 2 mg/mL) is reported as 5.48. The “Solubility 24 h” value ([1]; FaSSIF, pH 6.5, target concentration 2 mg/mL) was > 2000 µg/mL, the “Solubility 24 h” value ([1]; FeSSIF, pH 5.0) was 3400 µg/mL and the “pH of solubility sample” value ([1]; FeSSIF, pH 5.0, 24 h) was 4.52. For the same compound, the “pH of solubility sample” value ([1]; FeSSIF, pH 5.0, 24 h, target concentration 2 mg/mL) was 4.89, the “Solubility 24 h” value ([1]; FeSSIF, pH 5.0, target concentration 2 mg/mL) was > 2000 µg/mL and the “Solubility 24 h” value ([1]; H2O) was 3800 µg/mL. The “pH of solubility sample” value ([1]; H2O, 24 h) was 3.49, the “pH of solubility sample” value ([1]; H2O, 24 h, target concentration 2 mg/mL) was 3.80 and the “Solubility 24 h” value ([1]; H2O, target concentration 2 mg/mL) was > 2000 µg/mL. The “Solubility 24 h” value ([1]; SGF, pH 2.0) was 7500 µg/mL, the “pH of solubility sample” value ([1]; SGF, pH 2.0, 24 h) was 2.60 and the “pH of solubility sample” value ([1]; SGF, pH 2.0, 24 h, target concentration 2 mg/mL) was 1.99. For the same compound, the “Solubility 24 h” value ([1]; SGF, pH 2.0, target concentration 2 mg/mL) was > 2000 µg/mL, the “DVS Result 95% RH” value ([2]; 25° C.) was 1.29% and the “DVS Desorp (%)” value [2, 5] was 0.13%. For the same compound, the “DVS Sorption (%)” value [2, 5] was 0.13% and the “92.5% RH for 1W (by TGA,%)” value [3] was 0.3% at.

With (S)-mepazine succinate salt the “DVS Result 95% RH” value ([2]; 25° C.) was 1.87% and the “92.5% RH for 1W (by TGA,%)” value [3] was 0.4% at.

With `CN1CCCC(CN2c3ccccc3Sc3ccccc32)C1.Cl` (stereo not shown) [Hydrochloride, reference compound] the “moisture absorbed by DVS” value ([2]; 25° C. and 95% RH for about 5 hours) was 16.9 wt %, the “moisture absorbed at 80% RH” value ([2]; 80% RH at 25° C.) was 0.85% and the “behaviour under long term humidity conditions” value ([3]; 25° C., 92.5% RH for one week) was “deliquescent”. The “92.5% RH for 1W, observation” value [3] was “Deliqu”.

In the case of `CN1CCCC(CN2c3ccccc3Sc3ccccc32)C1.O=C(O)CC(O)C(=O)O` (stereo not shown) [Malate], the “92.5% RH for 1W, observation” value [3] is reported as “Deliqu”.

With `CN1CCCC(CN2c3ccccc3Sc3ccccc32)C1.O=C(O)C(O)C(O)C(=O)O` (stereo not shown) [Tartarate Pattern I] the “92.5% RH for 1W, observation” value [3] was “Deliqu”.

In the case of `N[C@@H](CCC(=O)O)C(=O)O` [Glutamate], the “DVS Result 95% RH” value ([2]; 25° C.) is reported as 16.84% and the “92.5% RH for 1W (by TGA,%)” value [3] is reported as 2.4% at.

For `CN1CCCC(CN2c3ccccc3Sc3ccccc32)C1.O=C(O)CCC(=O)O` (stereo not shown) [API control], the “Assay (%)” value ([4]; 40° C./75% RH open, 2 weeks) was 100.82%, the “TRS (%) (total related substances)” value ([4]; 40° C./75% RH open, 2 weeks) was 0.18% and the XRPD ([4]; 40° C./75% RH open, 2 weeks) was “No change”. The “Assay (%)” value ([4]; 40° C./75% RH open, 4 weeks) was 100.08%, the “TRS (%) (total related substances)” value ([4]; 40° C./75% RH open, 4 weeks) was 0.12% and the XRPD ([4]; 40° C./75% RH open, 4 weeks) was “No change”. For the same compound, the “Assay (%)” value ([4]; 60° C. close, 2 weeks) was 99.70%, the “TRS (%) (total related substances)” value ([4]; 60° C. close, 2 weeks) was 0.18% and the XRPD ([4]; 60° C. close, 2 weeks) was “No change”. For the same compound, the “Assay (%)” value ([4]; 60° C. close, 4 weeks) was 102.38%, the “TRS (%) (total related substances)” value ([4]; 60° C. close, 4 weeks) was 0.13% and the XRPD ([4]; 60° C. close, 4 weeks) was “No change”. For the same compound, the “Assay (%)” value ([4]; Initial 0 day) was 100.00% and the “TRS (%) (total related substances)” value ([4]; Initial 0 day) was 0.14%.

In the case of `CN1CCCC(CN2c3ccccc3Sc3ccccc32)C1.O=P(O)(O)O` (stereo not shown) [Phosphate], the “DVS Result 95% RH” value ([2]; 25° C.) is reported as 5.18% and the “92.5% RH for 1W (by TGA,%)” value [3] is reported as 1.3% at.

In the case of `O=S(=O)(O)O` [Sulfate], the “92.5% RH for 1W, observation” value [3] is reported as “Discoloration,; also recorded: Agglomerate” and the “92.5% RH for 1W (by TGA,%)” value [3] is reported as 2.3% at 145 °C.

For `CN1CCCC(CN2c3ccccc3Sc3ccccc32)C1.O=C(O)CCCCC(=O)O` (stereo not shown) [Adipate], the “92.5% RH for 1W (by TGA,%)” value [3] was 0.6% at.
